Measured values from ChEMBL document CHEMBL5365515, “PARP7 Inhibition: A Promising Pathway to Advancements in Cancer Therapy” (ACS Med Chem Lett, 2023).

Biological target: T1, Protein mono-ADP-ribosyltransferase TIPARP (Homo sapiens, UniProt Q7Z3E1)
T1 sequence (Q7Z3E1 whole entry): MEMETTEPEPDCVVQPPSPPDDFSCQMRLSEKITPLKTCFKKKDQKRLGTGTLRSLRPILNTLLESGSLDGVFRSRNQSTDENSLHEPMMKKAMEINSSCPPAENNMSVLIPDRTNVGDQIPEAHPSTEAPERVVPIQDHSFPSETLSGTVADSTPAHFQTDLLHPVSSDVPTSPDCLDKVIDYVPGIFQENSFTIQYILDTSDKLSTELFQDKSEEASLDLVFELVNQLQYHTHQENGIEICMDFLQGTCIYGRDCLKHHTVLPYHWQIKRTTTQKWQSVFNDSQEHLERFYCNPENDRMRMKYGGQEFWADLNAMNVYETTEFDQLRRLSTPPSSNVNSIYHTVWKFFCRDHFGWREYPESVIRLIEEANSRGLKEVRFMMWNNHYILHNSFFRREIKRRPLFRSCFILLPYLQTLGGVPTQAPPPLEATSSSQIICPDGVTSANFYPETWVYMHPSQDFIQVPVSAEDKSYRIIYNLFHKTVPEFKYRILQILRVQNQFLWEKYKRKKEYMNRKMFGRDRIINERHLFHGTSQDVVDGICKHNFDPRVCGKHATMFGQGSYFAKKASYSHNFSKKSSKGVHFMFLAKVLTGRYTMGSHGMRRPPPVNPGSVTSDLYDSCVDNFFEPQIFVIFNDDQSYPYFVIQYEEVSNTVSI
Assay: Inhibition of PARP7 in human NCI-H1373 cells assessed as increase in STAT1 phosphorylation at Tyr701 residue incubated for 48 hrs by LANCE Ultra TR-FRET assay
Type: cell-based

Row | Structure (SMILES) | EC50 [nM]
1 | O=C(CC[C@@H]1CCCCN1c1cc(C(F)(F)F)c(=O)[nH]n1)N1CCN(c2ncc(C(F)(F)F)cn2)CC1 | 172
2 | O=C(CCCN(c1ccccc1)c1cc(C(F)(F)F)c(=O)[nH]n1)N1CCN(c2ncc(C(F)(F)F)cn2)CC1 | 74.1
3 | CCN(CCCC(=O)N1CCN(c2ncc(C(F)(F)F)cn2)CC1)c1cc(C(F)(F)F)c(=O)[nH]n1 | 51.6
4 | O=C(CC[C@@H]1CCCN1c1cc(C(F)(F)F)c(=O)[nH]n1)N1CCN(c2ncc(C(F)(F)F)cn2)CC1 | 9.31
5 | O=C(CCC1Cc2ccccc2N1c1cc(C(F)(F)F)c(=O)[nH]n1)N1CCN(c2ncc(C(F)(F)F)cn2)CC1 (centres undefined) | 179

Further lines, results first:

Row | EC50 [nM] | Structure (SMILES)
6 | 21.3 | O=C([C@@H](O)CCNc1cc(C(F)(F)F)c(=O)[nH]n1)N1CCN(c2ncc(C(F)(F)F)cn2)CC1
7 | 60.6 | O=C(CCCCc1cc(C(F)(F)F)c(=O)[nH]n1)N1CCN(c2ncc(C(F)(F)F)cn2)CC1
8 | 75.6 | CN(CCCC(=O)N1CCN(c2ncc(C(F)(F)F)cn2)CC1)c1cc(C(F)(F)F)c(=O)[nH]n1
9 | 71.9 | O=C(CCCNc1cc(C(F)(F)F)c(=O)[nH]n1)N1CCN(c2ncc(C(F)(F)F)cn2)CC1
